{
  "source": "patent US20250212880A1",
  "about": "“COMPOSITION FOR COATING PLANT SEED” (priority 2022, published 2025)",
  "assay_type_in_all_cases": "in vivo",
  "key": {"Zea mays [1]": {"system": "Zea mays", "assay": "Field test of Zea mays (ear yield)", "conditions": "field cultivation, Belgium; seed coating 0.25 g tryptophan and/or 1000 g allantoin per tonne of seeds", "protocol": "In the same manner as in Example 1, Zea mays seeds coated with 0.25 g of tryptophan per tonne of seeds, Zea mays seeds coated with 1000 g of allantoin per tonne of seeds, and Zea mays seeds coated with 0.25 g of tryptophan and 1000 g of allantoin per tonne of seeds were prepared. As a control group, seeds without coating were prepared.\n• Location: the Wilderen MAR field, the Kingdom of Belgium • Variety: LIKEiT • Date of seeding: Apr. 27, 2020 • Date of harvesting: Oct. 12, 2020\nCultivation was performed in accordance with the conventional fertilization management technique and pest management technique, and the yield was inspected. • Inspection of yield: 120 strains/group; the number of repetitions: 4"}, "wheat [2]": {"system": "wheat", "assay": "Cultivation of wheat from coated seeds under non-stress conditions", "conditions": "2 weeks after seeding, seed coating Trp 0.045-9 g and/or allantoin 50 g per tonne of seeds", "protocol": "(§1) Wheat seeds (100 g, the variety: Yumechikara) were coated with 800 μL of a coating solution comprising tryptophan, allantoin, polyvinyl alcohol, and a coloring dye in water using a coater (SATEC). Coating was performed using either or both of tryptophan in an amount of 0 g, 0.045 g, 0.45 g, 4.5 g, or 9 g and allantoin in an amount of 0 g or 50 g per tonne of seeds.\n(§2) Culture soil was filled into 12-cm vinyl pots, and the coated wheat seeds were seeded at 4 grains/pot. After germination, a differently grown strain was thinned to retain 3 strains in a pot. Cultivation was performed in a glass greenhouse, and inspection was performed 2 weeks after seeding. The test was repeated 6 times, and the average was determined.\n(§3) The measured fresh weight of the aboveground part of plants in groups each treated with different amounts of tryptophan and allantoin was indicated as the rate of change (%), relative to the fresh weight of the aboveground part of plants in the test group (control group) treated with a coating solution not comprising tryptophan or allantoin."}, "wheat [3]": {"system": "wheat", "assay": "Cultivation of wheat from coated seeds under salt stress conditions", "conditions": "salt stress (NaCl 4.0 g/L soil), 2 weeks after seeding, seed coating Trp 0.045-9 g and/or allantoin 50 g per tonne of seeds", "protocol": "as §1, with “(100 g;” for “(100 g,”\nCulture soil comprising sodium chloride at 4.0 g/L of the soil was filled into 7.5-cm pots, and the coated wheat seeds were seeded at 1 grain/pot. Cultivation was performed in a glass greenhouse, and inspection was performed 16 days after seeding. The height and the fresh weight of the aboveground part were measured, and the density (the fresh weight of the aboveground part/the height) was determined. The test was repeated 9 times, and the average was determined.\nThe density of the test groups treated with different amounts of tryptophan and allantoin was indicated as the rate of change (%), relative to the density of the test group (control group) treated with a coating solution not comprising tryptophan or allantoin."}, "soybean [4]": {"system": "soybean", "assay": "Cultivation of soybean from coated seeds under non-stress conditions", "conditions": "3 weeks after seeding, seed coating Trp 0.225-5 g and/or allantoin 25 g per tonne of seeds", "protocol": "(§4) Soybean seeds (100 g; the variety: Fukuyutaka) were coated with 800 μL of a coating solution comprising tryptophan, allantoin, polyvinyl alcohol, and a coloring dye in water using a coater (SATEC). Coating was performed using either or both of tryptophan in an amount of 0 g, 0.225 g, 0.45 g, or 5 g and allantoin in an amount of 0 g or 25 g per tonne of seeds.\nas §2, with “coated soybean” for “coated wheat”, “performed 3” for “performed 2”\nas §3"}, "Zea mays [5]": {"system": "Zea mays", "assay": "Cultivation of Zea mays from coated seeds under non-stress conditions", "conditions": "dent corn, 3 weeks (21 days) after seeding, seed coating Trp 0.045-0.45 g and/or allantoin 50 or 500 g per tonne of seeds", "protocol": "Dent corn seeds (100 g; the variety: Snow-dent “Otoha”) were coated with 800 μL of a coating solution comprising tryptophan, allantoin, polyvinyl alcohol, and a coloring dye in water using a coater (SATEC). Coating was performed using either or both of tryptophan in an amount of 0 g, 0.045 g, 0.225 g, or 0.45 g and allantoin in an amount of 0 g, 50 g, or 500 g per tonne of seeds (MT).\nas §2, with “dent corn” for “wheat”, “21 days” for “2 weeks”, “seeding. The height, the fresh weight of the aboveground part, and the dry weight of the underground part were measured, and the density (the fresh weight of the aboveground part/the height) was determined. […]” for “seeding.”\nThe fresh weight of the aboveground part, the density, and the dry weight of the underground part measured for groups each treated with different amounts of tryptophan and allantoin were indicated as the rates of changes (%), relative to the fresh weight of the aboveground part, the density, and the dry weight of the underground part of plants in the test group (control group) treated with a coating solution not comprising tryptophan or allantoin. […]"}, "soybean [6]": {"system": "soybean", "assay": "Cultivation of soybean from coated seeds under salt stress conditions", "conditions": "salt stress (NaCl 1.0 g/L soil), 3 weeks after seeding, seed coating Trp 0.045-5 g and/or allantoin 50 g per tonne of seeds", "protocol": "as §4, with “0 g, 0.045 g, 0.225 g,” for “0 g, 0.225 g,”, “g or 50 g per” for “g or 25 g per”\nCulture soil comprising sodium chloride at 1.0 g/L of the soil was filled into 7.5-cm pots, and the coated soybean seeds were seeded at 1 grain/pot. Cultivation was performed in a glass greenhouse, and inspection was performed 3 weeks after seeding. The dry weight of the underground part was measured. The test was repeated 9 times, and the average was determined."}},
  "data": [
    {"smiles": "N[C@@H](Cc1c[nH]c2ccccc12)C(=O)O", "note": "[tryptophan, L-tryptophan]", "values": [
      {"measurement": "ear yield relative to the control group (100%)", "setting": "Zea mays [1]", "result": 100.4, "unit": "%"}
    ]},
    {"smiles": "NC(=O)NC1NC(=O)NC1=O", "note": "(stereo not shown) [allantoin, 5-ureidohydantoin]", "values": [
      {"measurement": "rate of change in the fresh weight of the aboveground part relative to control group", "setting": "wheat [2]", "result": 1, "unit": "%"},
      {"measurement": "rate of change in the density relative to control group", "setting": "wheat [3]", "result": 3, "unit": "%"},
      {"measurement": "ear yield relative to the control group (100%)", "setting": "Zea mays [1]", "result": 100.4, "unit": "%"},
      {"measurement": "rate of change in the fresh weight of the aboveground part relative to control group", "setting": "soybean [4]", "result": 4, "unit": "%"},
      {"measurement": "rate of change in the fresh weight of the aboveground part relative to control group", "setting": "Zea mays [5]", "result": 5, "unit": "%"},
      {"measurement": "rate of change in the dry weight of the underground part relative to control group", "setting": "soybean [6]", "result": 2, "unit": "%"}
    ]}
  ]
}
